Measurements from patent US8129371B2, “Thienopyrimidine and pyrazolopyrimidine compounds and their use as mTOR kinase and PI3 kinase inhibitors” (Wyeth LLC, priority 2007, dated 2012).
Read-outs that look alike come from different tables or passages of the source.

Key:
breast line MDA468 = assay: In vitro cell culture growth assay (MTS), MDA468; assay type: cell-based; conditions: Homo sapiens, 72 h, MDA468 cells, three days after drug treatment
How it was run: (§1)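 The readout was MTS dye metabolism at 490 nm, taken after 3-day drug exposure that began the day after seeding. Growth was expressed as percent of vehicle-treated wells in the same plate.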

PI3K [1] = target: T1, PI3K (Homo sapiens, UniProt P42336); assay: Fluorescence polarization assay for PI3K; assay type: biochemical; conditions: read-out: PI3 Kinase α IC50
T1 construct: PI3 Kinase α IC50; other: PI3 Kinase α; other: PI3 Kinase α isoform, fluorescence polarization
How it was run: (§2)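 Fluorescence-polarization competition readout: after 30–60 min of PIP2/ATP turnover in 1% DMSO, a stop mix with GST-GRP (70 nM) and red probe (10 nM) was added.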

PI3K [2] = target: T2, PI3K (Homo sapiens, UniProt P48736); assay: Fluorescence polarization assay for PI3K; assay type: biochemical; conditions: read-out: PI3 Kinase γ IC50
T2 construct: PI3 Kinase γ IC50; other: PI3 Kinase γ; other: PI3 Kinase γ isoform, fluorescence polarization
How it was run: as §2

prostate line LNCap = assay: In vitro cell culture growth assay (MTS), LNCap; assay type: cell-based; conditions: Homo sapiens, LNCaP, 72 h, LNCap cells, three days after drug treatment
How it was run: as §1

Human mTOR (FLAG-TOR) = target: T3, Human mTOR (FLAG-TOR) (Homo sapiens, UniProt P42345); assay: Human mTOR kinase assay with purified enzyme, DELFIA format; assay type: biochemical
T3 construct: FLAG
How it was run: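 DELFIA readout: Eu-anti-P(T389)-S6K antibody (40 ng/mL, 1 h) on captured His6-S6K from the stopped reaction. Kinase step used purified FLAG-tagged human mTOR with test compound in HEPES (pH 7.4)/MnCl2/DTT buffer, 2 h at room temperature (linear 1–6 h), terminated by EDTA/EGTA.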

[3] = PI3 Kinase α isoform, fluorescence polarization
[4] = PI3 Kinase γ isoform, fluorescence polarization
[5] = purified human mTOR enzyme, DELFIA format

T1 sequence (P42336 whole entry, canonical isoform): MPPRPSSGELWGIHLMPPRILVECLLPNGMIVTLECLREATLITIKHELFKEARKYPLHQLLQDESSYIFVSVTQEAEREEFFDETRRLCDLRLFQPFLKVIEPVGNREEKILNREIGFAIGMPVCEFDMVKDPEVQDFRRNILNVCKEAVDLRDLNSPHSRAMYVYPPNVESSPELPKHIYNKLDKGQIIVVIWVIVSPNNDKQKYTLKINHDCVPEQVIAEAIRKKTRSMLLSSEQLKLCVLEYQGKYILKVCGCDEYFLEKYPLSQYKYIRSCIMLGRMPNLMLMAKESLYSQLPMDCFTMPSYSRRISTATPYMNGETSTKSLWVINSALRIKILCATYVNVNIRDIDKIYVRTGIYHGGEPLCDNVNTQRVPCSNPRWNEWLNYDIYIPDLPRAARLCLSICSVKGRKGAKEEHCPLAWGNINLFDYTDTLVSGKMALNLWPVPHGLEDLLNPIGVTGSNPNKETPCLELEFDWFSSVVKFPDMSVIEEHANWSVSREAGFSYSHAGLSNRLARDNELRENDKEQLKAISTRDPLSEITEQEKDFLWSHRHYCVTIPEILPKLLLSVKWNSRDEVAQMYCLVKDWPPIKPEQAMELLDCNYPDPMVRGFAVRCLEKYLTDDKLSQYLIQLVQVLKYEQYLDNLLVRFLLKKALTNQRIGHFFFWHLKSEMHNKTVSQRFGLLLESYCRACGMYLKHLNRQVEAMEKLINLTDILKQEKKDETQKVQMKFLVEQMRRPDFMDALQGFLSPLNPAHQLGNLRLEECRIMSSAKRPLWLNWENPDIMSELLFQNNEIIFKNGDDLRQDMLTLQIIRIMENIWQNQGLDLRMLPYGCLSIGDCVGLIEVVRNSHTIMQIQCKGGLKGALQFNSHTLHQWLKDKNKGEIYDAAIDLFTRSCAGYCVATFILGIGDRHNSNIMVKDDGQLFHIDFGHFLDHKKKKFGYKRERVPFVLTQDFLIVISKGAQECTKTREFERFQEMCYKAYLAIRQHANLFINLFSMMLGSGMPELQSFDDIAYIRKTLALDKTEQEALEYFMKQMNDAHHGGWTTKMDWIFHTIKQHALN
T2 sequence (P48736 whole entry, canonical isoform): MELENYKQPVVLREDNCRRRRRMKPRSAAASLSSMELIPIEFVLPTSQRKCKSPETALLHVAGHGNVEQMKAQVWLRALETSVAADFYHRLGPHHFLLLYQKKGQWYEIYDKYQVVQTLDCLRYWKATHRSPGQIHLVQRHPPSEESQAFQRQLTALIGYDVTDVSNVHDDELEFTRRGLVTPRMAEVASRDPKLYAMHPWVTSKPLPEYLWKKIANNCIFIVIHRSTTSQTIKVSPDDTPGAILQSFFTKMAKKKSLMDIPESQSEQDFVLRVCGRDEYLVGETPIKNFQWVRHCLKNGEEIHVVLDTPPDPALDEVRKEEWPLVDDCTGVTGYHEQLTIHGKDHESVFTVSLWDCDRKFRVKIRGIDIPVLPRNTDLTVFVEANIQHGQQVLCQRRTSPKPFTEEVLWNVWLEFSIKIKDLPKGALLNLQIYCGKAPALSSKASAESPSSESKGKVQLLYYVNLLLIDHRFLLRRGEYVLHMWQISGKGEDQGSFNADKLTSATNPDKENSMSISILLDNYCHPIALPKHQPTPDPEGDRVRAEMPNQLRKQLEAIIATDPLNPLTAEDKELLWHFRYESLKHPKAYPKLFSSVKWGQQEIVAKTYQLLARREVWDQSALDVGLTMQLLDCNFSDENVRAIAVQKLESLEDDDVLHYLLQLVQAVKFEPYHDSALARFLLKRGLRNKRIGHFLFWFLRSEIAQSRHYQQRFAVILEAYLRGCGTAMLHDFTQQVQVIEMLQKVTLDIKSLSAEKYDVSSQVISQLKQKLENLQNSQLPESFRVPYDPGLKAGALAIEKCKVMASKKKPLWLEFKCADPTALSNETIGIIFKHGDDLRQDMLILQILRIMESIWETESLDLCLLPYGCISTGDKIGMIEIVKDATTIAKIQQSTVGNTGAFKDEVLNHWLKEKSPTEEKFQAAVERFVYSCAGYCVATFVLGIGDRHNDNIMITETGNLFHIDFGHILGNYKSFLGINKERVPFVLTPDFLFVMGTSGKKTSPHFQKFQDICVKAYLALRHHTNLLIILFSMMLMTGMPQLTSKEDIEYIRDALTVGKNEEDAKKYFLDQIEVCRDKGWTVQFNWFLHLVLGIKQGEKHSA

| Structure (SMILES) | IC50 (breast line MDA468) | IC50 (PI3K [1]; [3]) | IC50 (PI3K [2]; [4]) | IC50 (prostate line LNCap) | IC50 (Human mTOR (FLAG-TOR); [5]) | IC50 (PI3K [1]; PI3 Kinase α) | IC50 (PI3K [2]; PI3 Kinase γ) | IC50 (Human mTOR (FLAG-TOR)) |
| --- | --- | --- | --- | --- | --- | --- | --- | --- |
| COC1CCC(n2ncc3c(N4CC5CCC(C4)O5)nc(-c4ccc(NC(=O)Nc5ccc(CO)cc5)cc4)nc32)CC1 (stereo not drawn) [Example 308, 1-[4-(hydroxymethyl)phenyl]-3-{4-[1-(4-methoxycyclohexyl)-4-(8-oxa-3-azabicyclo[3.2.1]oct-3-yl)-1H-pyrazolo[3,4-d]pyrimidin-6-yl]phenyl}urea] | < 1 nM | 80 nM | 2720 nM | < 1 nM | 0.08 nM | – | – | – |
| CN(C)CCOc1ccc(NC(=O)Nc2ccc(-c3nc(N4C[C@@H]5C[C@H]4CO5)c4cnn(CC(F)(F)F)c4n3)cc2)cc1 [Example 300, 1-{4-[2-(dimethylamino)ethoxy]phenyl}-3-(4-{4-[(1S,4S)-2-oxa-5-azabicyclo[2.2.1]hept-5-yl]-1-(2,2,2-trifluoroethyl)-1H-pyrazolo[3,4-d]pyrimidin-6-yl}phenyl)urea] | 12 nM | 572 nM | 5280 nM | 1 nM | 5.5 nM | – | – | – |
| CC(C)(C)OC(=O)N1CCC(n2ncc3c(N4CC5CCC(C4)O5)nc(-c4ccc(NC(=O)Nc5cccnc5)cc4)nc32)CC1 [Example 24, tert-butyl 4-[4-(8-oxa-3-azabicyclo[3.2.1]oct-3-yl)-6-{4-[(pyridin-3-ylcarbamoyl)amino]phenyl}-1H-pyrazolo[3,4-d]pyrimidin-1-yl]piperidine-1-carboxylate] | 18 nM | – | – | 7 nM | – | 629 nM | 6300 nM | 0.39 nM |
| CCn1ncc2c(N3CC4CCC(C3)O4)nc(-c3ccc(NC(=O)Nc4ccc(C(N)=O)cc4)cc3)nc21 [Example 285, 4-[({4-[1-ethyl-4-(8-oxa-3-azabicyclo[3.2.1]oct-3-yl)-1H-pyrazolo[3,4-d]pyrimidin-6-yl]phenyl}carbamoyl)amino]benzamide] | 1 nM | – | – | < 1 nM | – | 23 nM | 524 nM | 0.105 nM |
| O=C(Nc1ccc(-c2nc(N3CC4CCC(C3)O4)c3cnn([C@H]4CC[C@@H](O)CC4)c3n2)cc1)NC1CC1 (relative stereo) [Example 402, 1-cyclopropyl-3-{4-[1-(cis-4-hydroxycyclohexyl)-4-(8-oxa-3-azabicyclo[3.2.1]oct-3-yl)-1H-pyrazolo[3,4-d]pyrimidin-6-yl]phenyl}urea] | 40 nM | 2970 nM | > 10000 nM | 2 nM | 0.41 nM | – | – | – |
| CNC(=O)Nc1ccc(-c2nc(N3CC4CCC(C3)O4)c3cnn(C4CCC5(CC4)OCC(C)(C)CO5)c3n2)cc1 [Example 152, 1-{4-[1-(3,3-dimethyl-1,5-dioxaspiro[5.5]undec-9-yl)-4-(8-oxa-3-azabicyclo[3.2.1]oct-3-yl)-1H-pyrazolo[3,4-d]pyrimidin-6-yl]phenyl}-3-methylurea] | 180 nM | – | – | 3 nM | – | 566 nM | > 10000 nM | 0.6 nM |
| O=C(Nc1ccc(-c2nc(N3CC4CCC(C3)O4)c3sccc3n2)cc1)NC1CC1 [Example 410, 1-cyclopropyl-3-{4-[4-(8-oxa-3-azabicyclo[3.2.1]oct-3-yl)thieno[3,2-d]pyrimidin-2-yl]phenyl}urea] | 780 nM | 1360 nM | ≥ 10000 nM | 40 nM | 0.71 nM | – | – | – |
| CC(C)n1ncc2c(N3CC4CCC(C3)O4)nc(-c3ccc(NC(=O)Nc4ccncc4)cc3)nc21 [Example 149, 1-{4-[1-isopropyl-4-(8-oxa-3-azabicyclo[3.2.1]oct-3-yl)-1H-pyrazolo[3,4-d]pyrimidin-6-yl]phenyl}-3-pyridin-4-ylurea] | 4 nM | – | – | < 1 nM | – | 40 nM | 342 nM | 0.125 nM |
| CCOC(=O)N1CCC(n2ncc3c(N4CC5CCC(C4)O5)nc(-c4ccc(NC(=O)NC5CCN(C)CC5)cc4)nc32)CC1 [Example 36, ethyl 4-[6-(4-{[(1-methylpiperidin-4-yl)carbamoyl]amino}phenyl)-4-(8-oxa-3-azabicyclo[3.2.1]oct-3-yl)-1H-pyrazolo[3,4-d]pyrimidin-1-yl]piperidine-1-carboxylate] | 4500 nM | – | – | 1200 nM | – | 6210 nM | 7620 nM | 26 nM |
| CNC(=O)Nc1ccc(-c2nc(N3CC4CCC(C3)O4)c3cnn(C4CCC(NCCO)CC4)c3n2)cc1 (stereo not drawn) [Example 334, 1-{4-[1-{4-[(2-hydroxyethyl)amino]cyclohexyl}-4-(8-oxa-3-azabicyclo[3.2.1]oct-3-yl)-1H-pyrazolo[3,4-d]pyrimidin-6-yl]phenyl}-3-methylurea] | 5200 nM | 434 nM | 3940 nM | 2960 nM | 4.5 nM | – | – | – |
| CNC(=O)Nc1ccc(-c2nc(N3CC4CCC(C3)O4)c3cnn(Cc4ccccc4)c3n2)cc1 [Example 77, 1-{4-[1-benzyl-4-(8-oxa-3-azabicyclo[3.2.1]oct-3-yl)-1H-pyrazolo[3,4-d]pyrimidin-6-yl]phenyl}-3-methylurea] | 700 nM | – | – | 120 nM | – | 2100 nM | > 10000 nM | 2.2 nM |
| COC(=O)N1CCC(n2ncc3c(N4C5CCC4COC5)nc(-c4ccc(NC(=O)Nc5cccnc5)cc4)nc32)CC1 [Example 361, methyl 4-[4-(3-oxa-8-azabicyclo[3.2.1]oct-8-yl)-6-{4-[(pyridin-3-ylcarbamoyl)amino]phenyl}-1H-pyrazolo[3,4-d]pyrimidin-1-yl]piperidine-1-carboxylate] | 20 nM | 1830 nM | 4070 nM | 2 nM | 0.165 nM | – | – | – |
| CCn1ncc2c(N3CC4CCC(C3)O4)nc(-c3ccc(NC(=O)Nc4ccc(N5CCCC5)cc4)cc3)nc21 [Example 280, 1-{4-[1-ethyl-4-(8-oxa-3-azabicyclo[3.2.1]oct-3-yl)-1H-pyrazolo[3,4-d]pyrimidin-6-yl]phenyl}-3-(4-pyrrolidin-1-ylphenyl)urea] | 120 nM | – | – | 55 nM | – | 1440 nM | 8210 nM | 6 nM |
| CCn1ncc2c(N3CC4CCC(C3)O4)nc(-c3ccc(NC(=O)NCCC(=O)N4CCN(C)CC4)cc3)nc21 [Example 277, 1-{4-[1-ethyl-4-(8-oxa-3-azabicyclo[3.2.1]oct-3-yl)-1H-pyrazolo[3,4-d]pyrimidin-6-yl]phenyl}-3-[3-(4-methylpiperazin-1-yl)-3-oxopropyl]urea] | 8000 nM | – | – | 3500 nM | – | 2950 nM | > 10000 nM | 110 nM |
| CC(C)(C)n1ncc2c(N3CC4CCC(C3)O4)nc(-c3ccc(NC(=O)OCCO)cc3)nc21 [Example 98] | 620 nM | – | – | 90 nM | – | 1420 nM | > 10000 nM | 0.98 nM |
| Nc1ncc(-c2nc(N3CC4CCC(C3)O4)c3sccc3n2)cn1 [Example 421, 5-[4-(8-oxa-3-azabicyclo[3.2.1]oct-3-yl)thieno[3,2-d]pyrimidin-2-yl]pyrimidin-2-amine] | 3900 nM | 246 nM | 9180 nM | 1200 nM | 51 nM | – | – | – |
| COC(=O)Nc1ccc(-c2nc(N3CC4CCC(C3)O4)c3cnn(C(C)(C)C)c3n2)cc1 [Example 92] | 30000 nM | – | – | 1800 nM | – | > 10000 nM | > 10000 nM | 11.7 nM |
| CNC(=O)Nc1ccc(-c2nc(N3CC4CCC(C3)O4)c3cnn([C@H]4CC[C@H](O)CC4)c3n2)cc1 (relative stereo) [Example 380, 1-{4-[1-(trans-4-hydroxycyclohexyl)-4-(8-oxa-3-azabicyclo[3.2.1]oct-3-yl)-1H-pyrazolo[3,4-d]pyrimidin-6-yl]phenyl}-3-methylurea] | 70 nM | 882 nM | > 10000 nM | 20 nM | 0.245 nM | – | – | – |
| O=C(Nc1ccc(CCO)cc1)Nc1ccc(-c2nc(N3C4CCC3COC4)c3cnn(CC(F)(F)F)c3n2)cc1 [Example 272, 1-[4-(2-hydroxyethyl)phenyl]-3-{4-[4-(3-oxa-8-azabicyclo[3.2.1]oct-8-yl)-1-(2,2,2-trifluoroethyl)-1H-pyrazolo[3,4-d]pyrimidin-6-yl]phenyl}urea] | 1 nM | – | – | < 1 nM | – | 132 nM | 1150 nM | 0.106 nM |
| CCNC(=O)Nc1ccc(-c2nc(N3CC4CCC(C3)O4)c3cnn(C(C)(C)C)c3n2)cc1 [Example 94] | 490 nM | – | – | 50 nM | – | 804 nM | > 10000 nM | 0.51 nM |
| CCOC(=O)N1CCC(n2ncc3c(N4CC5CCC(C4)O5)nc(-c4ccc(NC(=O)Nc5ccncc5)cc4)nc32)CC1 [Example 35, ethyl 4-[4-(8-oxa-3-azabicyclo[3.2.1]oct-3-yl)-6-{4-[(pyridin-4-ylcarbamoyl)amino]phenyl}-1H-pyrazolo[3,4-d]pyrimidin-1-yl]piperidine-1-carboxylate] | 9 nM | – | – | < 0.8 nM | – | 291 nM | 1800 nM | 0.34 nM |
